Assay results: PubChem BioAssay (NCI)
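Protocol summary: plate cells (96-well), add compound at 5 concentrations, incubate 48 h, interpolate endpoints linearly. Abbreviation: GI50, concentration required for 50% inhibition of growth. The concentration for full growth arrest is given as TGI.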

Key:
Test in all cases: NCI-60 cell line screen, 48 h
IGROV1 ovarian = tested on: IGROV1 ovarian
HL-60(TB) leukemia = tested on: HL-60(TB) leukemia
LOX IMVI melanoma = tested on: LOX IMVI melanoma
MCF7 breast = tested on: MCF7 breast
SW-620 colon = tested on: SW-620 colon
SK-OV-3 ovarian = tested on: SK-OV-3 ovarian
BT-549 breast = tested on: BT-549 breast
SF-295 CNS = tested on: SF-295 CNS
EKVX NSCLC = tested on: EKVX NSCLC
MDA-N = tested on: MDA-N
NCI-H226 lung = tested on: NCI-H226 lung
MOLT-4 leukemia = tested on: MOLT-4 leukemia
SK-MEL-2 melanoma = tested on: SK-MEL-2 melanoma
TK-10 renal = tested on: TK-10 renal
MDA-MB-435 = tested on: MDA-MB-435
SK-MEL-5 melanoma = tested on: SK-MEL-5 melanoma
DU-145 prostate = tested on: DU-145 prostate

Compound | TGI (IGROV1 ovarian) [µM] | TGI (HL-60(TB) leukemia) [µM] | TGI (LOX IMVI melanoma) [µM] | TGI (MCF7 breast) [µM] | TGI (SW-620 colon) [µM] | TGI (SK-OV-3 ovarian) [µM] | TGI (BT-549 breast) [µM] | TGI (SF-295 CNS) [µM] | TGI (EKVX NSCLC) [µM] | TGI (MDA-N) [µM] | TGI (NCI-H226 lung) [µM] | TGI (MOLT-4 leukemia) [µM] | TGI (SK-MEL-2 melanoma) [µM] | TGI (TK-10 renal) [µM] | TGI (MDA-MB-435) [µM] | TGI (SK-MEL-5 melanoma) [µM] | TGI (DU-145 prostate) [µM] | GI50 (NCI-H226 lung) [µM]
Cc1ccc(/C=C/C(=N/NC(=O)N/N=C(/C=C/c2ccc(C)cc2)C(C)(C)CN2CCCCC2)C(C)(C)CN2CCCCC2)cc1 | 3.71 | 3.35 | 2.64 | 2.83 | 3.35 | 3.32 | 4.21 | 3.13 | 6.69 | 2.88 | 4.51 | 0.345 | 3.44 | 3.26 | 2.76 | 3.08 |  | 
O=C(O)c1ccccc1/C=N/NC1=NCCCCN1 | > 100 | > 100 | > 100 | > 100 | > 100 | > 100 | > 100 | > 100 | > 100 | > 100 | > 100 | > 100 | > 100 | > 100 | > 100 | > 100 |  | 
CN1CCC23c4c5ccc(O)c4OC2c2[nH]c4ccccc4c2CC3(O)C1C5 (stereo not given) | > 100 |  | 54.7 | > 100 | > 100 | > 100 | > 100 | > 100 | > 100 | 44.9 |  | 93.6 | 39.9 | 43.5 | 36.9 | 27.1 | > 100 | 
C=CC[C@@H]1C(=O)[C@@]2(O[Si](C(C)C)(C(C)C)C(C)C)CC[C@@H]1C[C@H]2NC(=O)OCC(Cl)(Cl)Cl |  |  | > 100 |  | > 100 | > 100 |  | 85.8 |  | > 100 | > 100 | > 100 | > 100 | > 100 | > 100 | > 100 | > 100 | 
O=C(c1cccc(C(=O)c2ccc3c4c(cccc24)C(=O)N(c2ccccc2)C3=O)c1)c1ccc2c3c(cccc13)C(=O)N(c1ccccc1)C2=O | > 100 |  | > 100 | > 100 | > 100 | > 100 | > 100 | > 100 | > 100 | > 100 | > 100 | > 100 |  | > 100 | > 100 | > 100 | > 100 | 
CC1(C)CC(=O)c2c(nc(SSc3nc4c(c(-c5ccccc5)c3C#N)C(=O)CC(C)(C)C4)c(C#N)c2-c2ccccc2)C1 | > 10 | > 10 | > 10 | > 10 | > 10 | > 10 | > 10 | > 10 | > 10 |  | > 10 | > 10 | > 10 | > 10 |  | > 10 | > 10 | 
CC1OC(OC2C(O)COC(OC3C(C)OC(OC4C(OC(=O)[C@]56CCC(C)(C)C[C@@H]5C5=CCC7[C@@]8(C)C[C@H](O)[C@H](OC9OC(CO)C(O)C(OC%10OC(CO)C(O)C(O)C%10O)C9O)[C@@](C)(CO)[C@@H]8CC[C@@]7(C)[C@]5(C)CC6)OCC(O)C4O)C(O)C3O)C2O)C(O)C(O)C1O (stereo not given in full) |  |  | 35 | 36.1 | 30.4 | 30.3 | 40.7 | 28.4 | 26.1 | 32 | 42.9 | 36.5 | 36 | 34.2 | 42.1 | 30.3 | 29 | 
COc1cc(O)c2c(=O)cc(C3(O)C=CC(=O)C=C3)oc2c1 | 0.0328 | 2.75 | 0.464 | 0.58 | 0.0663 | 13.8 | 1.49 | 2.09 | 5.79 |  | 1.73 | > 100 | 2.66 | 0.376 |  | 0.234 | 3.18 | 
COc1ccc(/C=C2\N=C(NN)N=C2Cl)cc1 | > 100 | > 100 | > 100 | > 100 | > 100 | > 100 |  | > 100 | > 100 | > 100 | > 100 | > 100 | > 100 | > 100 | > 100 | > 100 | > 100 | 
COc1cc2c(cc1OC)C(N)CC2=O (stereo not given) | > 100 |  | > 100 | > 100 | > 100 | > 100 | > 100 | > 100 | > 100 |  | > 100 | > 100 | > 100 | > 100 | > 100 | > 100 | > 100 | 
COc1cc(/C=C/c2cc(/C=C/c3ccc(O)c(OC)c3)oc(=O)c2)ccc1O | 19.9 |  | 15.7 | > 100 | > 24.5 | > 65.2 | 12.2 | 19.4 | > 36.2 | > 100 | 61.1 | > 26.2 | > 65.9 | > 30 | 22.5 | > 100 | 6.82 | 
COc1c(O)c2c(=O)cc(OC)c3c4c(OC)cc(=O)c5c(O)c(OC)c6c(c(c1C(C(C)=O)C6C(C)O)c23)c54 (stereo not given) | 1 | 0.415 | 0.32 | 1.54 | 0.469 | 2.49 |  | 2.05 | 4.55 | 2.34 | 3.65 | 0.443 |  | 3.65 | 3.1 |  | 1.74 | 
CC(=O)OC1CC[C@]2(C)C3CC[C@@]4(C)C(CCC4[C@H](C)CCCC(C)C)[C@@H]3CCC2(Br)C1 (stereo not given in full) | 29.7 | 28.3 | 29.4 | 23.3 | 19.3 | > 50 |  | > 50 | > 50 | > 50 | > 50 | 28 |  | 26.5 | 19.4 |  | > 50 | 
CCOC(=O)c1cnc(-n2[nH]c3c(c2=O)CCCC3)[nH]c1=O | > 100 | > 100 |  |  | > 100 | > 100 | > 100 | > 100 | > 100 | > 100 | > 100 | > 100 | > 100 | > 100 | > 100 | > 100 | > 100 | 
NNc1[nH]c(=S)[nH]c1C(N)=O | > 100 | > 100 | > 100 | > 100 | > 100 | > 100 | > 100 | > 100 | > 100 |  | > 100 | > 100 | > 100 | > 100 | > 100 | > 100 | > 100 | 
C/C=C/C(=O)N1C(=O)OC[C@@H]1c1ccccc1 | 37.1 | 43 | 35 | 31.5 | 54.6 | 33.3 |  | > 100 | 35 | 43.8 | 39.6 | 47.3 | 36.9 | 32.2 | 70 | 38.4 | 37.4 | 
NC(=O)c1[nH]cnc1/N=N/SCC(N)C(=O)O (stereo not given) | > 100 | 6.66 | > 100 | > 100 | > 100 | > 100 | > 100 | > 75.1 | > 100 |  | > 100 |  | > 100 | > 100 | > 100 | > 100 | > 100 | 
COc1ccc([C@@]23OC[C@@H]4[C@@H](OC[C@@H]42)c2cc(OC)c(OC)cc23)cc1OC | > 100 | > 100 | > 100 | > 100 | > 100 | > 100 | > 100 | > 100 | > 100 |  | > 100 | > 100 | > 100 | > 100 | > 100 | > 100 | > 100 | 
COc1cc([C@@H]2c3cc4c(cc3[C@@H](NC(=O)c3cccc(F)c3)C3COC(=O)[C@@H]32)OCO4)cc(OC)c1O (stereo not given in full) | 10.6 | 2.3 | 15.1 |  | 16.2 | 5.78 |  | 26.8 | 7.49 |  | 2.2 | 1.06 | 18 | 17.1 |  | 12.7 |  | 
CC(=O)NNc1nc(C)c(C(/C=C/c2ccc(Cl)cc2)=N/NC(=O)C[N+](C)(C)C)s1 | > 100 | > 100 | > 100 |  | > 100 | > 100 |  | > 100 | > 100 |  | > 100 | > 100 | > 100 | > 100 |  | > 100 |  | 
O=C(O)CCCOc1cc(-c2ccccc2F)nc2cc3c(cc12)OCO3 | 15.8 |  | > 100 | > 100 | > 100 | > 100 | > 100 |  | > 100 | 4.45 | > 100 | 71.3 | > 100 | > 100 | > 100 | > 100 | > 100 | 8.51
O=c1[nH]n(Cc2ccccn2)c2ccc([N+](=O)[O-])cc12 | > 100 | > 100 | > 100 |  | > 100 |  |  |  | > 100 | > 100 | > 100 | > 100 | > 100 | > 100 |  | > 100 | > 100 | 
Cc1ccc(S(=O)(=O)N2CCCC2C(=O)O[C@H]2CC[C@H]3CC=C[C@H]32)cc1 (stereo not given in full) | > 100 |  | > 100 | 78.8 | > 100 | > 100 | > 100 | > 100 | > 100 | > 100 | > 100 | 33.4 |  |  | > 100 | 43.6 |  | 
Cc1c2c(n(CCN(C)C)c1C)NN=C(C#N)S2(=O)=O | > 100 |  | > 100 | > 100 | > 100 | > 100 |  |  | > 100 | > 100 | > 100 | > 100 | > 100 | > 100 | > 100 |  | > 100 | 
N#CC(Cc1ccccc1Br)N(CCC1=CCCCC1)C(c1ccccc1)c1ccccc1 (stereo not given) | > 100 |  |  | > 100 | > 100 | > 100 | > 100 | > 100 | > 100 | > 100 |  | > 100 | > 100 | > 100 | > 100 | > 100 | > 100 | 
O=C(/C=C/c1ccc(O)c(O)c1O)OCCc1ccccc1 | 84.5 | 48.8 | 53.5 | 32.2 | 49.2 | > 100 |  | 35.5 | > 100 | 34 | 97.9 | 53.8 | > 100 | > 100 | 36.2 | > 100 | > 100 | 
O=c1cc(-c2ccc(Cl)cc2)oc2cc(OCCCOc3ccc4c(=O)cc(-c5ccc(Cl)cc5)oc4c3)ccc12 | > 100 | > 100 | > 100 |  | > 100 | > 100 |  | > 100 | > 100 |  | > 100 | > 100 | > 100 | > 100 |  | > 100 |  | 
Nc1nc(Cl)c2nnn(CC3CCC(CO)C3)c2n1 (stereo not given) |  |  | > 100 | > 100 | > 100 | > 100 |  | > 100 | > 100 | > 100 | > 100 |  | > 100 | > 100 | > 100 | > 100 | > 100 | 
CC#CCCN(CC#N)Cc1ccccc1 | > 100 | > 100 | > 100 | 44.7 |  | > 100 |  | > 100 | > 100 | > 100 | > 100 | > 100 | > 100 | > 100 | > 100 | > 100 | > 100 | 
